Results on nine compounds are retold here after PubChem BioAssay (NCI).

Holding throughout (experiment): DTP human tumour cell line panel, 48 h
Assay [1] deals with HCT-15 colon.
Assay [2] relates to HOP-92 NSCLC.
Assay [3] deals with TK-10 renal.
Assay [4] deals with UACC-62 melanoma.
The test system of assay [5] is OVCAR-4 ovarian.
For assay [6], the system named is SK-MEL-28 melanoma.
Assay [7] relates to M14 melanoma.
Assay [8] relates to SW-620 colon.
The subject of assay [9] is PC-3 prostate.
Assay [10] deals with RXF 393 renal.

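These data come from cells grown in 96-well plates and exposed to compound for 48 hours at five concentrations. GI50 = concentration required for 50% inhibition of growth. TGI denotes the concentration required for complete inhibition of growth.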

Regarding `COc1cc(/C=C\c2cc(/C=C\c3ccc(O)c(OC)c3)n(C(=O)CNc3ccc(Cl)cc3)n2)ccc1O`, the GI50 (usually the concentration at which growth is held to half of that of the control) in [1] is 2.54 µM; in assay [2] it was 5.65 µM; in assay [3], 5.52 µM; in assay [4] it was 2.73 µM; in assay [5], 2.88 µM; in assay [6], 2.3 µM. In addition, the GI50 in assay [7] is 2.89 µM; in assay [8] it was 4.75 µM; in assay [9] it was 3.38 µM; in assay [10], 2.1 µM. In addition, the TGI – broadly, the concentration at which net growth stops – in [1] is 12.2 µM; in assay [2], 24.2 µM; in assay [3], 18.8 µM; in assay [4] it was 9.2 µM; in [5], above 100 µM; in [6] it was 11.6 µM. The total growth inhibition concentration (TGI) came to 15.5 µM in assay [7], 23.2 µM in assay [8], 47.9 µM in [9] and 4.67 µM in assay [10].
Turning to `COc1ccc(CNc2cnc3cc(N)cc(N)c3n2)cc1`, the GI50 in assay [1] is 24.6 µM; in assay [2], 24.1 µM; in [3] it was 27 µM; in [4], 18.1 µM; in [5], 64.5 µM; in assay [6], 58 µM. Moreover, the GI50 in assay [7] is 20.5 µM; in [8], 23.5 µM; in [9], 34.2 µM; in assay [10], 22.3 µM. Also, the TGI was 68.6 µM in [1]; 54.3 µM in [2]; 64.2 µM in [3]; 32.4 µM in assay [4]; above 100 µM in assay [5]; above 100 µM in assay [6]. Moreover, the TGI in assay [7] is 43.9 µM; in assay [8] it was 50.4 µM; in [9], above 100 µM; in [10] it was 49.8 µM.
Turning to `CCCN1C(=O)/C(=C/c2ccc(O)cc2)SC1=Nc1ccc(OC)cc1`, the GI50 in assay [1] is 12.6 µM; in [2], 6.91 µM; in assay [3], 18.4 µM; in [4], 17.6 µM; in assay [5], 13.4 µM; in assay [6], 19.4 µM. Further, the GI50 in assay [7] is 26.8 µM; in assay [8], 18 µM; in assay [9], 14 µM; in [10], 11.7 µM. Further, the concentration for total growth inhibition (TGI) in assay [1] was found to be 25.7 µM; in assay [2], 23.2 µM; in assay [3] it was 39 µM; in [4], 33.7 µM; in [5] it was 35.2 µM; in [6], 41 µM. The total growth inhibition concentration (TGI) in assay [7] was found to be 60.6 µM; in assay [8], 48.3 µM; in [9], 31.7 µM; in assay [10] it was 28.3 µM.
As to `COc1cc2ncn(-c3cc(OCc4ccccc4C(F)(F)F)c(C(C)=O)s3)c2cc1OC`, the GI50 in assay [1] was above 25 µM; in assay [2] it was 10.8 µM; in assay [3] it was above 25 µM; in assay [4] it was above 25 µM; in assay [5], above 25 µM; in [6], above 25 µM. In addition, the GI50 was above 25 µM in assay [7], above 25 µM in [8], above 25 µM in [9] and above 21.5 µM in assay [10]. Moreover, the total growth inhibition concentration (TGI) in assay [1], in [2], in assay [3], in [4], in [5] and in assay [6] was above 25 µM each time. Also, the TGI in [7], in assay [8], in assay [9] and in assay [10] was above 25 µM each time.
For the compound `CC(C)(C)c1ccc(O)c(CN(Cc2cc(C(C)(C)C)ccc2O)C2CCCCC2)c1`, the TGI in [1] was 36.2 µM; in assay [2] it was 23.9 µM; in assay [3], 32.4 µM; in assay [4], 31.4 µM; in [5], 50.3 µM; in [6], 27.2 µM. For the same compound, the TGI in [7] amounted to 28.4 µM; in assay [8], 35.1 µM; in assay [9], 46.8 µM; in assay [10], 30 µM.
Take `CC(O)CN1c2ccccc2Sc2ccc(Cl)cc21` (stereo not drawn): the TGI in assay [1], in assay [2], in [3], in assay [4], in assay [5] and in assay [6] was above 10 µM each time. Besides, the total growth inhibition concentration (TGI) in [7], in assay [8], in [9] and in assay [10] was above 10 µM in each case.
Consider `CN(O)C(=S)c1ccccc1`, for which the TGI in assay [1] was 37.6 µM; in assay [2], above 100 µM; in assay [3] it was above 100 µM; in [4], 6.21 µM; in assay [5] it was 19.6 µM; in [6] it was above 100 µM. Besides, the TGI was above 38.7 µM in [7], 14.6 µM in assay [8], above 59.1 µM in assay [9] and 14.5 µM in assay [10].
Turning to `CCCCCCN(C)Cc1ccc(OCCOc2ccc(CN(C)CCCCCC)cc2)cc1`, the GI50 in assay [1] was 0.984 µM; in assay [2] it was 0.407 µM; in assay [3] it was 1.29 µM; in assay [4] it was 1.6 µM; in [5] it was 1.17 µM; in [6], 1.45 µM. For the same compound, the GI50 is 0.448 µM in assay [7], 1.48 µM in [8], 1.24 µM in assay [9] and 0.834 µM in [10]. The TGI in assay [1] stood at 2.83 µM; in [2] it was 2.05 µM; in assay [3], 2.6 µM; in assay [4], 3.4 µM; in [5] it was 2.74 µM; in assay [6], 2.88 µM. Further, the TGI in [7] came to 1.83 µM; in assay [8], 3.13 µM; in [9], 2.8 µM; in assay [10], 2.15 µM.
As for `COc1ccc(/C=C2\CC(C)CC3C2=NN(c2ccccc2)C3c2ccc(OC)c(OC)c2)cc1OC` (stereo not drawn), the GI50 in [1] is 1.98 µM; in [2], 5.32 µM; in assay [3] it was 5.78 µM; in assay [4], 4.29 µM; in [5] it was 3.65 µM; in assay [6], 4.87 µM. For the same compound, the GI50 in assay [8] was 3.96 µM; in assay [9], 6.32 µM; in assay [10], above 100 µM. The TGI in assay [1] is 4.38 µM; in assay [2], above 100 µM; in assay [3] it was above 100 µM; in assay [4], 17.3 µM; in assay [5], above 100 µM; in assay [6] it was 18.3 µM. The TGI in assay [8], in assay [9] and in [10] was above 100 µM each time.
